In ChEMBL document CHEMBL1153686, “On the microbial biogeneration of (R) -jasmolactone” (1993):

Assays:
Type in all cases: functional
Kodamaea ohmeri [1] = experiment: Z-6, Z-9-dodecadien-4-olide Isolated at 24 hours incubation of compound in Pichia ohmeri
Kodamaea ohmeri [2] = experiment: Z-6-dodecen-4-olide Isolated at 24 hours incubation of compound in Pichia ohmeri
Kodamaea ohmeri [3] = experiment: dodecan-4-olide Isolated at 24 hours incubation of compound in Pichia ohmeri
Scheffersomyces stipitis [4] = experiment: 5-tetradecen-4-olide Isolated at 24 hours incubation of compound in Pichia stipitis
Scheffersomyces stipitis [5] = experiment: Z-6, Z-9-dodecadien-4-olide Isolated at 24 hours incubation of compound in Pichia stipitis
Scheffersomyces stipitis [6] = experiment: Z-6-dodecen-4-olide Isolated at 24 hours incubation of compound in Pichia stipitis
Scheffersomyces stipitis [7] = experiment: dodecan-4-olide Isolated at 24 hours incubation of compound in Pichia stipitis
Kodamaea ohmeri [8] = experiment: Z-7-decen-5-olide Isolated at 24 hours incubation of compound in Pichia ohmeri
Scheffersomyces stipitis [9] = experiment: Z-7-decen-5-olide Isolated at 24 hours incubation of compound in Pichia stipitis
Kodamaea ohmeri [10] = experiment: Hexane-4-olide Isolated at 24 hours incubation of compound in Pichia ohmeri
Scheffersomyces stipitis [11] = experiment: 5-octen-4-olide Isolated at 24 hours incubation of compound in Pichia stipitis
Scheffersomyces stipitis [12] = experiment: Hexane-4-olide Isolated at 24 hours incubation of compound in Pichia stipitis
Kodamaea ohmeri [13] = experiment: Decan-4-olide Isolated at 24 hours incubation of compound in Pichia ohmeri
Kodamaea ohmeri [14] = experiment: E-5,Z-7-dodien-4-olide solated at 24 hours incubation of compound in Pichia ohmeri
Kodamaea ohmeri [15] = experiment: E-5-decen-4-olide Isolated at 24 hours incubation of compound in Pichia ohmeri
Scheffersomyces stipitis [16] = experiment: E-5,Z-7-dodien-4-olide Isolated at 24 hours incubation of compound in Pichia stipitis
Scheffersomyces stipitis [17] = experiment: E-5-decen-4-olide Isolated at 24 hours incubation of compound in Pichia stipitis
Kodamaea ohmeri [18] = experiment: Nonan-4-olide Isolated at 24 hours incubation of compound in Pichia ohmeri
Kodamaea ohmeri [19] = experiment: […] Isolated at 24 hours incubation of compound in Pichia ohmeri
Scheffersomyces stipitis [20] = experiment: Octane-4-olide Isolated at 24 hours incubation of compound in Pichia stipitis
Scheffersomyces stipitis [21] = experiment: […] Isolated at 24 hours incubation of compound in Pichia stipitis

Work on `CCCCCCCC/C=C/CCCC1CCC(=O)O1` (stereo unspecified) yielded a Lactone production (Kodamaea ohmeri [1]) of 25.6, a Lactone production (Kodamaea ohmeri [2]) of 11.8 and a Lactone production (Kodamaea ohmeri [3]) of 4.6. It also gave a Lactone production (Scheffersomyces stipitis [4]) of 2.6, a Lactone production (Scheffersomyces stipitis [5]) of 16.7 and a Lactone production (Scheffersomyces stipitis [6]) of 11. The Lactone production (Scheffersomyces stipitis [7]) was 4.

`CC/C=C/C[C@@H]1CCC(=O)O1` showed a Lactone production (Kodamaea ohmeri [8]) of 12.3 and a Lactone production (Scheffersomyces stipitis [9]) of 12.5.

`CC/C=C/CCCC1CCC(=O)O1` (stereo unspecified) showed a Lactone production (Kodamaea ohmeri [10]) of 8.25, a Lactone production (Scheffersomyces stipitis [11]) of 11.9 and a Lactone production (Scheffersomyces stipitis [12]) of 3.2.

`CC/C=C/C=C/[C@@H]1CCC(=O)O1` showed a Lactone production (Kodamaea ohmeri [13]) of 1.5, a Lactone production (Kodamaea ohmeri [14]) of 20.5 and a Lactone production (Kodamaea ohmeri [15]) of 7.6. It also gave a Lactone production (Scheffersomyces stipitis [16]) of 25.09 and a Lactone production (Scheffersomyces stipitis [17]) of 8.6.

`CC/C=C/CC[C@@H]1CCC(=O)O1` gave a Lactone production (Kodamaea ohmeri [18]) of 5.9, a Lactone production (Kodamaea ohmeri [19]) of 1.1 and a Lactone production (Scheffersomyces stipitis [20]) of 4. For the same compound, the Lactone production (Scheffersomyces stipitis [21]) was 0.3.
